Test results: patent US10316017B2, “COT modulators and methods of use thereof” (Gilead Sciences, Inc., priority 2015, dated 2019)
Where two headings read alike, the source gives them in different places.

Key:
[1] = target: T1, human Cot catalytic domain (30-397 amino acids) (Homo sapiens, UniProt P41279); assay: High Throughput Cot Biochemical Assay (KinEASE TR-FRET); conditions: read-out: IC50 HTRF
T1 construct: Purified recombinant human Cot catalytic domain (30-397 amino acids) was purchased from Cama Biosciences; purchased Cama Biosciences (so in the source)
In short: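 Phosphorylation of 1 μM XL665-STK3 peptide by 5 nM Cot catalytic domain was measured by time-resolved FRET using a europium […] antibody. ATP was 400 μM; buffer was 10 mM MOPS pH 7.0 with Mg2+ and DTT.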

[2] = tested on: TNFα production in LPS-stimulated human monocytes; assay: Cot Monocyte TNFα Cell Based Assay; conditions: Homo sapiens, Monocyte, read-out: EC50 TNF
In short: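 Percent-of-control values derive from TR-FRET ratios of TNFα in spun-down media, referenced to unstimulated and LPS-stimulated wells. Exposure: 1 h compound preincubation, then 50 pg/ml LPS for 4 h, both at 37 °C, with 0.5% final DMSO.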

[3] = Cot KinEASE TR-FRET, 400 μM ATP
[4] = LPS-stimulated human monocytes, TNFα TR-FRET
[5] = Cot KinEASE TR-FRET (HTRF) biochemical assay, 400 μM ATP
[6] = TNFα in LPS-stimulated human monocytes
[7] = Cot biochemical HTRF (KinEASE TR-FRET) assay

T1 sequence (P41279 30-397): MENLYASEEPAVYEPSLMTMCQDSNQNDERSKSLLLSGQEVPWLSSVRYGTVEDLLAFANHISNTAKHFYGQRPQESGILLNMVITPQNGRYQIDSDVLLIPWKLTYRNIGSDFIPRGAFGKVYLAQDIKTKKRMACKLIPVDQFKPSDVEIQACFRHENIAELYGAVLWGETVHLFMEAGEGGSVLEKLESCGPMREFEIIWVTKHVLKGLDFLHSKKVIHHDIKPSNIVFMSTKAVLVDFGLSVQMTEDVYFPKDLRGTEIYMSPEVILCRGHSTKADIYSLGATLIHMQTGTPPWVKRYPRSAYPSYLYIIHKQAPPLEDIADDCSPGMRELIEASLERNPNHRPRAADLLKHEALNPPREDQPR

| SMILES | IC50 [1, 5] [nM] | EC50 [2, 6] [nM] | other results |
| --- | --- | --- | --- |
| Cc1c(C#N)cccc1[C@H](Nc1cc(Cl)c2ncc(C#N)c(NCC(C)(C)C)c2c1)c1cn(C2(C(N)=O)CCC2)nn1 [Example 1009, (S)-1-(4-(((8-chloro-3-cyano-4-(neopentylamino)quinolin-6-yl)amino)(3-cyano-2-methylphenyl)methyl)-1H-1,2,3-triazol-1-yl)cyclobutane-1-carboxamide] | – | – | IC50 [1, 3]: 1 nM; EC50 [2, 4]: 67 nM |
| [2H][C@](Nc1cc(Cl)c2ncc(C#N)c(NCC3(C(F)F)CC3)c2c1)(c1ccc(F)cc1)c1cn(C2CC2)nn1 [Example 203, (S)-8-chloro-6-(((1-cyclopropyl-1H-1,2,3-triazol-4-yl)(4-fluorophenyl)methyl-d)amino)-4-(((1-(difluoromethyl)cyclopropyl)methyl)amino) quinoline-3-carbonitrile] | 38 | 608 | – |
| [2H][C@](Nc1cc(Cl)c2ncc(C#N)c(NN3CCCCCC3)c2c1)(c1ccc(F)cc1)c1cn(C2CC2)nn1 [Example 177, (S)-4-(azepan-1-ylamino)-8-chloro-6-(((1-cyclopropyl-1H-1,2,3-triazol-4-yl)(4-fluorophenyl)methyl-d)amino)quinoline-3-carbonitrile] | 370 | 2460 | – |
| CCN1CC[C@@H](n2cc([C@@H](Nc3cc(Cl)c4ncc(C#N)c(Nc5ccc(F)c(Cl)c5)c4c3)c3ccccc3)nn2)[C@H](F)C1 [Example 743, 8-chloro-4-((3-chloro-4-fluorophenyl)amino)-6-(((S)-(1-((3R,4R)-1-ethyl-3-fluoropiperidin-4-yl)-1H-1,2,3-triazol-4-yl)(phenyl)methyl)amino)quinoline-3-carbonitrile] | – | 575 | IC50 [1, 7]: 29 nM |
| CC(C)(C)CNc1c(C#N)cnc2c(C#N)cc(N[C@H](c3cn(C4(C(N)=O)CCOC4)nn3)c3ccccc3Cl)cc12 (stereo partly drawn) [Example 1022, 3-(4-((S)-(2-chlorophenyl) ((3,8-dicyano-4-(neopentylamino)quinolin-6-yl)amino)methyl)-1H-1,2,3-triazol-1-yl)tetrahydrofuran-3-carboxamide] | – | – | IC50 [1, 3]: 7 nM; EC50 [2, 4]: 503 nM |
| CC(C)(C)N1CCC(n2cc([C@@H](Nc3cc(Cl)c4ncc(C#N)c(NC[Si](C)(C)C)c4c3)c3ccccc3)nn2)CC1 [Example 489, (S)-6-(((1-(1-(tert-butyl)piperidin-4-yl)-1H-1,2,3-triazol-4-yl)(phenyl)methyl)amino)-8-chloro-4-(((trimethylsilyl)methyl)amino)quinoline-3-carbonitrile] | – | – | IC50 [1, 7]: 10 nM; EC50 [2]: 184 nM |
| [2H]C(Nc1cc(F)c2ncc(C#N)c(NC(CC#N)c3ccccc3)c2c1)(c1ccc(F)cc1)c1cn(C2CC2)nn1 (stereo in doubt) [Example 286, 4-((2-cyano-1-phenylethyl)amino)-6-(((1-cyclopropyl-1H-1,2,3-triazol-4-yl)(4-fluorophenyl)methyl-d)amino)-8-fluoroquinoline-3-carbonitrile] | 7 | 127 | – |
| [2H][C@](Nc1cc(-c2cn[nH]c2)c2ncc(C#N)c(NCC(C)(C)C)c2c1)(c1ccc(F)cc1)c1cn(C2CC2)nn1 [Example 168, (S)-6-(((1-cyclopropyl-1H-1,2,3-triazol-4-yl)(4-fluorophenyl)methyl-d)amino)-4-(neopentylamino)-8-(1H-pyrazol-4-yl)quinoline-3-carbonitrile] | 2070 | 9570 | – |
| Cc1c([C@H](Nc2cc(C#N)c3ncc(C#N)c(NCC(C)(C)C)c3c2)c2cn(C3(C(F)(F)F)CC3)nn2)cccc1-n1nccn1 [Example 1044, (S)-6-(((2-methyl-3-(2H-1,2,3-triazol-2-yl)phenyl)(1-(1-(trifluoromethyl)cyclopropyl)-1H-1,2,3-triazol-4-yl)methyl)amino)-4-(neopentylamino)quinoline-3,8-dicarbonitrile] | – | – | IC50 [1, 3]: 8 nM; EC50 [2, 4]: 214 nM |
| CC(C)(C)CNc1c(C#N)cnc2c(C#N)cc(N[C@@H](c3cccc(C(N)=O)c3)c3cn(C4CC4)nn3)cc12 [Compound 59] | 1 | 612 | – |
| CC(C)(C)N1CCC(n2cc([C@@H](Nc3cc(Cl)c4ncc(C#N)c(Nc5cscc5Cl)c4c3)c3ccccc3)nn2)CC1 [Example 612, (S)-6-(((1-(1-(tert-butyl)piperidin-4-yl)-1H-1,2,3-triazol-4-yl)(phenyl)methyl)amino)-8-chloro-4-((4-chlorothiophen-3-yl)amino)quinoline-3-carbonitrile] | – | 2020 | IC50 [1, 7]: 84 nM |
| Cc1c(-c2cncn2C)cccc1[C@H](Nc1cc(Cl)c2ncc(C#N)c(NCC(C)(C)C)c2c1)c1cn(C2(C(F)F)CC2)nn1 [Example 1122, (S)-8-chloro-6-(((1-(1-(difluoromethyl)cyclopropyl)-1H-1,2,3-triazol-4-yl)(2-methyl-3-(1-methyl-1H-imidazol-5-yl)phenyl)methyl)amino)-4-(neopentylamino)quinoline-3-carbonitrile] | – | – | IC50 [1, 3]: 2 nM; EC50 [2, 4]: 47 nM |
| [2H]C(Nc1cc(Cl)c2ncc(C#N)c(Nc3cnc(F)c(F)c3)c2c1)(c1ccc(F)cc1)c1cn(C2CC2)cn1 (stereo not shown) [Example 355, 8-chloro-6-(((1-cyclopropyl-1H-imidazol-4-yl)(4-fluorophenyl)methyl-d)amino)-4-((5,6-difluoropyridin-3-yl)amino)quinoline-3-carbonitrile] | 121 | 4660 | – |
| N#Cc1cnc2c(Cl)cc(N[C@@H](c3ccc(F)cc3)c3c[nH]nn3)cc2c1Nc1ccc(F)c(F)c1 [Example 368, (S)-8-chloro-4-((3,4-difluorophenyl)amino)-6-(((4-fluorophenyl)(1H-1,2,3-triazol-4-yl)methyl)amino)quinoline-3-carbonitrile] | 50 | 1130 | – |
| CC(C)(C)CNc1c(C#N)cnc2c(C#N)cc(N[C@@H](c3ccc(F)cc3)c3cn(C4(CO)CC4)nn3)cc12 [Example 979, (S)-6-(((4-fluorophenyl)(1-(1-(hydroxymethyl)cyclopropyl)-1H-1,2,3-triazol-4-yl)methyl)amino)-4-(neopentylamino)quinoline-3,8-dicarbonitrile] | – | – | IC50 [1, 3]: 4 nM; EC50 [2, 4]: 103 nM |
| [2H][C@](Nc1cc(Cl)c2ncc(C#N)c(NC3(C#N)CC3)c2c1)(c1ccc(F)cc1)c1cn(C2CC2)nn1 [Example 217, (S)-8-chloro-4-((1-cyanocyclopropyl)amino)-6-(((1-cyclopropyl-1H-1,2,3-triazol-4-yl)(4-fluorophenyl)methyl-d)amino)quinoline-3-carbonitrile] | 327 | 3580 | – |
| CC[C@@H](Nc1c(C#N)cnc2c(Cl)cc(N[C@H](c3cn(C4CC4)nn3)c3cccc(Cl)c3Cl)cc12)c1ccccc1 [Example 294, 8-chloro-6-(((S)-(1-cyclopropyl-1H-1,2,3-triazol-4-yl)(2,3-dichlorophenyl)methyl)amino)-4-(((R)-1-phenylpropyl)amino)quinoline-3-carbonitrile] | 92 | 1880 | – |

Now from value to compound, other results behind:

| IC50 [1, 5] [nM] | EC50 [2, 6] [nM] | SMILES | other results |
| --- | --- | --- | --- |
| 8 | 173 | [2H][C@](Nc1cc(F)c2ncc(C#N)c(N[C@H](CC)c3ccccc3)c2c1)(c1ccc(F)cc1)c1cn(C2CC2)nn1 [Example 291, 6-(((S)-(1-cyclopropyl-1H-1,2,3-triazol-4-yl)(4-fluorophenyl)methyl-d)amino)-8-fluoro-4-(((R)-1-phenylpropyl)amino) quinoline-3-carbonitrile] | – |
| 11 | 771 | N#Cc1cc([C@H](Nc2cc(Cl)c3ncc(C#N)c(Nc4cnc(F)c(F)c4)c3c2)c2c[nH]nn2)ccc1F [Example 372, (S)-8-chloro-6-(((3-cyano-4-fluorophenyl)(1H-1,2,3-triazol-4-yl)methyl)amino)-4-((5,6-difluoropyridin-3-yl)amino)quinoline-3-carbonitrile] | – |
| – | 4900 | COc1ccccc1CNc1c(C#N)cnc2c(Cl)cc(N[C@@H](c3ccc(F)cc3)c3cn(C4CCN(C(C)(C)C)CC4)nn3)cc12 [Example 442, (S)-6-(((1-(1-(tert-butyl)piperidin-4-yl)-1H-1,2,3-triazol-4-yl)(4-fluorophenyl)methyl)amino)-8-chloro-4-((2-methoxybenzyl)amino) quinoline-3-carbonitrile] | IC50 [1, 7]: 193 nM |
| 7 | 194 | [2H][C@](Nc1cc(Cl)c2ncc(C#N)c(NC(CC#N)c3ccccc3)c2c1)(c1ccc(F)cc1)c1cn(-c2cccnc2)nn1 (stereo partly drawn) [Example 267, 8-chloro-4-((2-cyano-1-phenylethyl)amino)-6-(((S)-(4-fluorophenyl)(1-(pyridin-3-yl)-1H-1,2,3-triazol-4-yl)methyl-d)amino)quinoline-3-carbonitrile] | – |
| 254 | 3610 | [2H][C@](Nc1cc(Cl)c2ncc(C#N)c(NCCc3nccs3)c2c1)(c1ccc(F)cc1)c1cn(C2CC2)nn1 [Example 147, (S)-8-chloro-6-(((1-cyclopropyl-1H-1,2,3-triazol-4-yl)(4-fluorophenyl)methyl-d)amino)-4-((2-(thiazol-2-yl)ethyl)amino) quinoline-3-carbonitrile] | – |
| – | 533 | N#Cc1cnc2c(F)cc(N[C@@H](c3ccc(Cl)cc3)c3cn(C4CCN(C5COC5)CC4)nn3)cc2c1Nc1ccc(F)c(Cl)c1 [Example 708, (S)-4-((3-chloro-4-fluorophenyl)amino)-6-(((4-chlorophenyl)(1-(1-(oxetan-3-yl)piperidin-4-yl)-1H-1,2,3-triazol-4-yl)methyl)amino)-8-fluoroquinoline-3-carbonitrile] | IC50 [1, 7]: 103 nM |
